From patent US7790896B2, “RNA-selective probes for live cell imaging of nuclear structure and function” (New York University, priority 2006, dated 2010)

Key:
3T3 cells = experiment: Phototoxicity test, MTS assay of irradiated cells; type: cell-based, mouse; settings: dye 5 μM (Hoechst 1 μM), irradiated 5 minutes, 24 hours incubation
Method: Dye DMSO stock solutions were diluted by fresh medium into working concentration (5 μM). Cells were cultured in 96-well plate for 12 hours before experiments. The cell medium was exchanged with dye medium solutions. Cells were then incubated in at 37° C., in 5% CO2 for 25 minutes before being irradiated by fluorescent light using the appropriate working filter (FITC for E36 and E144; Cy3 for F22) for 5 minutes. The plates were then incubated at 37° C. in 5% CO2 The cell viability was measured by MTS assay after 5 and 24 hours following the cytotoxicity measurement procedure. Duplicated experiments have been tested.
Phototoxicity is also an important factor in evaluating applicability of new fluorescent probes for live cell imaging. […] Nevertheless, it is desirable for the new imaging probes to be as non-phototoxic as possible. To investigate the phototoxicity of the present RNA-selective compounds, cellular viability of irradiated cells using MTS assay was assessed. Cells were incubated with dyes (E36, E144, and F22) in their working concentration (5 μM), and then irradiated with the appropriate filters using the fluorescent microscope (FITC for E36 and E144; Cy3 for F22). While light exposures used for imaging experiments are generally a few seconds long at most, cells were irradiated for 5 minutes for prolonged toxicity measurement. […]

[1] = system: RNA (Type VI from torula yeast); experiment: In vitro solution assay (primary screening): fluorescent emission fold change upon binding to RNA; settings: dye 10 μM, RNA 500 μg/mL in TE buffer
Method: (§1) The fluorescence spectra data in the primary screening and selected dyes titration assay study was obtained by Gemini XS plate reader. RNA solution was prepared right before the assay experiments to avoid possible degradation and contamination. In the primary screening, 1 mg/mL RNA (type VI from torula yeast) buffer solution was used. Point scans were carried out first using five Ex/Em point sets ([…], 400/500, 450/550, 500/600, 550/650 nm). Spectra scans were then carried out for the selected dyes. Excitation wavelengths were set at 350 nm, 400 nm, 450 nm, 500 nm, and 550 nm and the emission wavelengths were scanned. RNA (16S- and 23S-ribosomal from E. coli) and DNA (salmon testes) titration experiments and quantum yield/extinction coefficient determination for the three best dyes were carried out by the plate reader as well. Excitation λmax obtained from F-2500 Hitachi Fluorophotometer was used. Absorbance wavelength was determined by SpectraMax Plus^384 absorbance plate reader. […] was chosen as standard and 480 nm was used as excitation wavelength in the scanning for quantum yield determination.
The screening strategy used in this study is illustrated in FIG. 2. Both in vitro RNA assays and live cell imaging methods were utilized in the primary screening of the dye library. Selective binding of the dye to RNA in solution was the primary criterion for selecting lead compounds for subsequent bioimaging studies, Herein, the library dyes' fluorescent emission intensity fold change upon binding to RNA was measured in solution. Dyes showing five-fold or higher emission changes in the presence of RNA were selected (Table 3). Note the dyes listed are identified by the building blocks I and II from Table 2. For example, A4 is the product made by reacting compound A from the list of Building block I and compound 4 from the list of Building block II.

[2] = Fluorescence spectrum in TE buffer of dyes selected from live cell imaging; type: physicochemical; settings: dye 10 μM in TE buffer
Method: as §1

[3] = system: Fixed-permeabilized Hela cells; experiment: DNase and RNase digest test; type: cell-based, human; settings: dye 50 μM, 2 hours
Method: Cells were first fixed using cold (−4° C.) pure methanol for 1 minute at ambient temperature. The cell membrane was then permeabilized by immersion in 1% Triton X-100 for 2 minutes. After rinsing with PBS twice, 100 μL of 50 μM dye PBS solution was added to three adjacent wells. Cells were then incubated in this dye PBS solution for 15 minutes in ambient temperature before being rinsed with clean PBS twice. 100 μL clean PBS (as control experiment), 30 μg/mL DNase (Sigma), or 25 μg/mL DNase-Free RNase (GE) was added to the three adjacent wells and incubated at 37° C. in 5% CO2 for 2 hours. Cells were rinsed with clean PBS twice before imaging. For each dye test, the fluorescent images were obtained using equal exposure time for control, DNase and RNase experiments. DAPI (10 μM) in PBS and SYTO®RNASelect (5 μM) in PBS solution were used for dual staining experiments. Duplicate experiments have been tested.
To further confirm that the compounds selectively bind RNA, a deoxyribonuclease (DNase) and ribonuclease (RNase) digest test was performed. In DNase digest, only the DNAs in the cell would be hydrolyzed. By contrast, in RNase digest, only RNAs would be hydrolyzed. Fixed-permeabilized Hela cells were used in this experiment and DAPI and SYTO®RNASelect were used as control dyes (FIG. 6). […] Still, its higher RNA-selective binding in live cell might be due to the complicated in vivo live cell environment, which may preferably direct this dye to nucleoli.

[4] = system: 3T3 fibroblast cells, 3T3-L1 adipocyte cells, Hela cells and A549 human lung carcinoma cells; experiment: Secondary screening: live cell nuclear imaging properties in four cell lines; type: cell-based, mouse; settings: dye 25 μM
Method: (§2) All cell staining imaging followed the same procedure. Generally, dyes in dry state were first dissolved in DMSO to obtain the stock solution. The stock solutions were then added directly to the cell culture wells to reach the desired concentration. Total DMSO was lower than 0.1%. After adding dyes, cells were incubated at 37° C. in 5% CO2 for 25 minutes. The medium was then removed and cells were rinsed with fresh medium twice. The cells were then imaged at ambient temperature in the medium. Exposure time was kept less than 5 seconds and adjusted to each dye.
The selected compounds from both primary screens (total 88) were resynthesized in large scale and purified. The compounds' live cell nuclear imaging properties were then tested by four cell lines, including two mouse cell lines: 3T3 fibroblast cells and 3T3-L1 adipocyte cells; and two human cancer cell lines: Hela cells and A549 human lung carcinoma cells. Herein, the final dye concentration in each test was decreased to 25 μM and all the experiments were repeated to establish reproducibility. […] Each of the three dyes contained at least one high affinity nucleic acid functional group (Trotta et al., “Solution Structure of DAPI Selectively Bound in the Minor Groove of a DNA T-T Mismatch-Containing Site: NMR and Molecular Dynamics Studies,” Nucleic Acids Res. 26:4706-4713 (1998); Loontiens et al., “Binding Characteristics of Hoechst 33258 with Calf Thymus DNA, Poly[d(A-T)], and d(CCGGAATTCCGG): Multiple Stoichiometries and Determination of Tight Binding with a Wide Spectrum of Site Affinities,” Biochem. 29:9029-9039 (1990); Zipper et al., “Investigations on DNA Intercalation and Surface Binding by SYBR Green I, Its Structure Determination and Methodological Implications,” Nucleic Acid Res. 32:E103 (2004); Glazer et al., “Stable Dye-DNA Intercalation Complexes as Reagents for High-Sensitivity Fluorescence Detection,” Nature 359:859-861 (1992), which are hereby incorporated by reference in their entirety) in building block II such as the terminal secondary amine for F22 and F112, the trimethoxy for E 144, and the indole for E36.

[5] = Fluorescent properties of free dye solution; type: physicochemical; settings: TE buffer pH 7.5, dye 5 μM
Method: as §1, with “determination. […] Generally, the λmax (nm) of emission was determined by scanning a fixed excitation first, and the μmax (nm) of excitation was determined by scanning emission spectrum with a fixed μem (nm). The detailed fluorescent properties of three selected dyes including; excitation/emission μmax, the quantum yield and extinction coefficient of both free dye solution and dye-RNA solution were assessed (Table 5).” for “determination.”

[6] = system: RNA (16S- and 23S-ribosomal from E. coli); experiment: Fluorescent properties of dye-RNA solution; type: binding; settings: TE buffer pH 7.5, dye 5 μM, RNA 200 μg/mL
Method: as §1, with “determination. […] Generally, the λmax (nm) of emission was determined by scanning a fixed excitation first, and the μmax (nm) of excitation was determined by scanning emission spectrum with a fixed μem (nm). The detailed fluorescent properties of three selected dyes including; excitation/emission μmax, the quantum yield and extinction coefficient of both free dye solution and dye-RNA solution were assessed (Table 5).” for “determination.”

[7] = system: Hela, A549, 3T3, and 3T3-L1; experiment: Optimization of working concentration and imaging properties, live cell staining; type: cell-based, human, mouse; settings: 20, 10, 5 and 1 μM tested in four cell lines
Method: as §2
In fluorescence microscopic imaging studies, it is always desirable to use as little dye as possible to stain organelles in order to maximize specificity and minimize dye toxicity and cell death. To determine the lowest working concentration of each dye, four different concentrations (20 μM, 10 μM, 5 μM, and 1 μM) were tested in four cell lines (Hela, A549, 3T3, and 3T3-L1). Dyes E36, E144, and F112 were imaged using FITC channel, and F22 was imaged using Cy3 channel. Generally, a quality fluorescence signal for each dye was produced using a concentration of 5 μM for E36, E144, and F22 and 10 μM for F112 (Table 5). It was interesting to observe that compound F22 was brighter in 3T3 cells, and a concentration of 1 μM was sufficient for a clear image (FIG. 4). […] Little photobleaching and no obvious cell morphology or viability changes were observed during the tests.

Structure (SMILES)	SPECTRUM EM [2] [nm]	SPECTRUM EX [2] [nm]	other results
CN1CCN(c2ccc3[nH]c(-c4ccc5[nH]c(-c6ccc(O)cc6)nc5c4)nc3c2)CC1 [Hoechst 33258]			Phototoxicity (3T3 cells): as toxic in 3T3 cells as F22
COc1ccc2c(ccc(C=Cc3ccc(O)c(Br)c3)[n+]2C)c1 [Dye F158]	620	500	Em(nm) [1]: 620 nm; Ex(nm) [1]: 500 nm; Fold (fluorescent emission fold changes to RNA) [1]: 7
COc1ccc2c(ccc(/C=C/c3ccc(N(C)C)cc3[N+](=O)[O-])[n+]2C)c1 [Dye F112]	620	500	Fluorescence after RNase digest ([3]; 25 μg/mL DNase-Free RNase): slight stain of the nucleus; Fluorescence after DNase digest ([3]; 30 μg/mL DNase): bright nucleolar staining remained; Live cell nuclear imaging properties (basis of selection) [4]: selective nucleolar targeting, high fluorescence intensity, low photobleaching, and low cellular toxicity; EM (emission λmax), Buffer [5]: 516 nm; EX (excitation λmax), Buffer [5]: 462 nm; EM (emission λmax), RNA [6]: 514 nm; EX (excitation λmax), RNA [6]: 465 nm; Optimum Concentration for live cell imaging [7]: 10 µM
COc1ccc2c(ccc(/C=C/c3cc(Br)ccc3OC)[n+]2C)c1 [Dye F137]	540	400	
COc1ccc2c(ccc(/C=C/C=C/c3ccccc3OC)[n+]2C)c1 [Dye F97]	460	350	
COc1ccc2c(ccc(C=Cc3ccc4c(c3)OCO4)[n+]2C)c1 [Dye F43]	560	450	
COc1ccc2c(ccc(/C=C/c3ccco3)[n+]2C)c1 [Dye F45]	490	400	
COc1ccc2c(ccc(C=Cc3c(C)ccc4ccccc34)[n+]2C)c1 [Dye F143]	550	450	
C[n+]1c(/C=C/c2ccc(-c3cccs3)s2)ccc2ccccc21 [Dye E119]	600	450	
COc1ccc2c(ccc(/C=C/C3CCCN3C)[n+]2C)c1 (stereo not shown) [Dye F74]	550	450	
Cc1ccc2ccccc2c1/C=C/c1cc[n+](C)c2ccccc12 [Dye D143]	530	400	
COc1ccc2c(ccc(C=Cc3ccccc3Br)[n+]2C)c1 [Dye F47]	470	350	
COc1ccc2c(ccc(/C=C/c3cccc(OC)c3OC(C)=O)[n+]2C)c1 [Dye F153]	470	350	
COc1ccc2c(ccc(/C=C/c3ccc(OC)c4ccccc34)[n+]2C)c1 [Dye F41]	590	450	
CCOc1cccc(C=Cc2ccc3cc(OC)ccc3[n+]2C)c1O [Dye F104]	460	350	
